Test results as given in patent US7541368B2, “Pyrazoles as inhibitors of tumor necrosis factor” (Aventis Pharmaceuticals Inc., priority 2003, dated 2009).
Like-named read-outs stand apart in the source and are kept apart here.

Experiments:
[1] = system: TNF-alpha release in THP-1 cells; assay: LPS-induced TNF-alpha release in THP-1 cells; assay type: cell-based; settings: Homo sapiens, THP-1, LPS-stimulated THP-1 cells
Outline: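 TNF-alpha in supernatants was quantified by sandwich ELISA against a log/log recombinant standard curve (0.125-16 ng/ml). Before this, THP-1 cells (1×10^6 cells/ml, serum-reduced) received compound at 1×10^−9 to 1×10^−6 M in 0.3% DMSO for 1 h, then LPS 20 μg/ml for 18 h.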

Murine p38 = biological target: T1, Murine p38 (Mus musculus, UniProt P47811); assay: Murine p38α standard assay against pre-activated p38 (ATF-2 phosphorylation, DELFIA); assay type: biochemical; settings: murine p38, ATF-2 substrate
T1 construct: purchased CalBiochem 506122
T1 sequence (P47811 whole entry): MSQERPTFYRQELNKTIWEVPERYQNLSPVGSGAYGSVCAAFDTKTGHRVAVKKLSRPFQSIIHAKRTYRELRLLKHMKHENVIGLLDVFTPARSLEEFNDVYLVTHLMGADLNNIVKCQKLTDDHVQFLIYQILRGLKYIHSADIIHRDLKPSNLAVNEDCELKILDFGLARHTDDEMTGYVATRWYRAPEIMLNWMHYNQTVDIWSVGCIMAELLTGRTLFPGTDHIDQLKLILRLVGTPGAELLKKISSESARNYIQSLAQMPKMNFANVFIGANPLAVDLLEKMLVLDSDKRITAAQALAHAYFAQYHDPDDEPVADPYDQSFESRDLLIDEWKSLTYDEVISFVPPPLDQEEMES
Procedure: Compounds of the invention were tested in a conventional assay against pre-activated p38. Murine p38 enzyme activity was determined by measuring the incorporation of the γ-phosphate of ATP into ATF-2.
Human GST-tagged ATF-2 (50 μg/ml) was coated onto 96 well plates. Assay buffer (25 mM Hepes buffer, pH 7.7 containing 25 mM magnesium chloride, 2 mM dithiothreitol, 1 mM sodium orthovanadate and 100 μM ATP) was then added to each well. Compounds were dissolved in DMSO (100%) and added to the assay buffer to give a fmal DMSO concentration of 0.3%. Murine p38 (CalBiochem Catalog # 506122; 40 ng/ml) was then added and the assay continued for 1 hour.
Phosphorylated ATF-2 was quantitated using a rabbit anti-human phospho (threonine 71)-specific ATF-2 primary antibody (Cell Signaling, Catalog # 9221B) followed by a sheep europium N^1-labelled anti-rabbit IgG secondary antibody (Perkin Elmer Life Sciences Catalog # AD0105) and addition of the DELFIA enhancement solution (Perkin Elmer Life Sciences) resulting.
Fluorescence was measured using a Wallac Victor^2 1420 multi-label HTS counter (Perkin Elmer Life Sciences). The results are reported as IC50 values. Compounds were tested over the concentration range of 3×10^−10M to 3>10^−5M.

[2] = biological target: T2, Inactive N-terminal His6 tagged murine P38 (Mus musculus, UniProt P47811); assay: p38 cascade assay (HTRF; inactive p38 activated by MKK-6, ATF-2 phosphorylation); assay type: biochemical; settings: inactive p38 preincubated with compound, then MKK-6, ATF-2, ATP; read-out: 50% inhibition in the p38 cascade assay at concentrations within the range
T2 construct: His6 (N); made in house
T2 sequence (P47811 whole entry): as above

[3] = system: Human HSP27 phosphorylation; assay: HSP27 phosphorylation in LPS stimulated THP-1 cells; assay type: cell-based; settings: Western blot, read-out: HSP-27
Procedure: The effects of compounds on Heat Shock Protein (HSP)-27 phosphorylation in LPS stimulated THP-1 cells were examined as follows:
THP-1 cells were maintained as described for the TNF-alpha assay (1.1.).
THP-1 cells (1×10 ^6 cells/ml, total volume 1 ml) in culture medium were incubated for one hour (5% CO2, 37° C.) with fresh medium containing compounds (0.0001-30 μM) or vehicle (0.1% DMSO). LPS ([…]) was then added to the cells (except the untreated cell sample) and the incubation continued for a further 20 minutes. Cells were collected, centrifuiged and washed with ice-cold PBS buffer (free of Ca^2+ and Mg^2+). Cell lysates were prepared with 1× lysis buffer (Promega Catalog# E153A) for storage at −20° C.
HSP27 phosphorylation was determined by Western blot-enhanced chemi-luminescence (ECL-Amersham)). Briefly, cell lysates were electrophoresed on 12% Tris-glycine gels and transferred to nitrocellulose membranes. The membranes were then probed with primary rabbit antiphospho-HSP27 (ser82) antibody and secondary anti-rabbit antibody conjugated to horse raddish peroxidase. After addition of the ECL detection reagent, the film was developed and the p-HSP27 immunoreactivity quantified by densitometry.

[4] = TNF-alpha by ELISA, read-out: THP 1 cells
[5] = read-out: 50% inhibition in the LPS-induced TNF-alpha release in THP-1 cells assay at concentrations within the range

Row | IC50 [1, 4] | IC50 (Murine p38) | IC50 [1, 5] | IC50 [2] | IC50 [3] | Compound
1 | 15.5 nM | 230 nM | 10 to 500 nM | 10 to 100 nM | – | COc1ccc(C(=O)N2CCC(Cc3ccc(NC(=O)Nc4cc(C(C)(C)C)nn4-c4ccc(C)cc4)cc3)CC2)c(OC)c1 [Compound A218, 1-(5-tert-Butyl-2-p-tolyl-2H-pyrazol-3-yl)-3-{4-[1-(2,4-dimethoxy-benzoyl)-piperidin-4-ylmethyl]-phenyl}-urea]
2 | 83 nM | 500 nM | 10 to 500 nM | – | – | COc1ccc(C(=O)N2CCC(Cc3ccccc3NC(=O)Nc3cc(C(C)(C)C)nn3-c3ccc(C)cc3)CC2)c(OC)c1 [Compound A1113, 1-(5-tert-butyl-2-p-tolyl-2H-pyrazol-3-yl)-3-{2-[1-(2,4-dimethoxy-benzoyl)-piperidin-4-ylmethyl]-phenyl}-urea]
3 | 10.6 nM | 216 nM | 10 to 500 nM | 10 to 100 nM | 27 nM | COc1ccc(C(=O)N2CCC(Cc3cccc(NC(=O)Nc4cc(C(C)(C)C)nn4-c4ccc(C)cc4)c3)CC2)c(OC)c1 [Compound A27, 1-(5-tert-butyl-2-p-tolyl-2H-pyrazol-3-yl)-3-{3-[1-(2,4-dimethoxy-benzoyl)-piperidin-4-ylmethyl]-phenyl}-urea]
4 | – | – | 10 to 500 nM | 10 to 100 nM | – | Cc1ccc(-n2nc(C(C)(C)C)cc2NC(=O)Nc2cccc(CC3CCN(C(=O)c4ccncc4)CC3)c2)cc1 [Compound A170, 1-(5-tert-Butyl-2-p-tolyl-2H-pyrazol-3-yl)-3-{3-[1-(pyridine-4-carbonyl)-piperidin-4-ylmethyl]-phenyl}-urea]

Row | Compound | IC50 [1, 4] | IC50 (Murine p38) | IC50 [1, 5] | IC50 [2] | IC50 [3]
5 | COc1ccc(C(=O)N2C3CCC2CC(Cc2ccccc2NC(=O)Nc2cc(C(C)(C)C)nn2-c2ccc(C)cc2)C3)c(OC)c1 (stereo not drawn) [Example 5, 1-(5-tert-butyl-2-p-tolyl-2H-pyrazol-3-yl)-3-{2-[8-(2,4-dimethoxy-benzoyl)-8-aza-bicyclo[3.2.1]oct-3-ylmethyl]-phenyl}-urea] | 5110 nM | 6750 nM | – | – | –
6 | COc1ccc(C(=O)N2C3CCC2CC(Cc2ccc(NC(=O)Nc4cc(C(C)(C)C)nn4-c4ccc(C)cc4)cc2)C3)c(OC)c1 (stereo not drawn) [Example 4, 1-(5-tert-Butyl-2-p-tolyl-2H-pyrazol-3-yl)-3-{4-[8-(2,4-dimethoxy-benzoyl)-8-aza-bicyclo[3.2.1]oct-3-ylmethyl]-phenyl}-urea] | 79.5 nM | 1170 nM | – | – | –
